One compound from PMC5007466, “VCP recruitment to mitochondria causes mitophagy impairment and neurodegeneration in models of Huntington's disease” (Nature Communications, 2016) can be followed below.

“Also recorded” adds a separate entry of the source.

For experiment [1], the system named is interaction between VCP and UBXD1. In words: Co-immunoprecipitation VCP/UBXD1. The class given is cell-based. Conditions: HV-3 treatment; total cell lysates, IP/WB. Here is the method: (b) Stick drawings of VCP and Htt main domains. […] Immunoprecipitates were analysed by WB with the indicated antibodies. […] VCP mitochondrial levels were determined by WB. Loading control: VDAC. Data are mean±s.e.m. (g–i) ANOVA with Holm-Sidak post hoc test.

Experiment [2] deals with HdhQ111 / HdhQ7 mouse striatal cells. In words: VCP mitochondrial level, mouse striatal cells (western blot). The class given is cell-based. Here is the method:
Immortalized striatal cell lines HdhQ111 mutant and HdhQ7 wt cells were obtained from the CHDI Foundation. Cells were cultured in DMEM supplemented with 10% FBS, 100 μg/ml penicillin, 100 μg ml^−1 streptomycin, and 400 μg ml^−1 G418. Cells were grown at 33 °C in a 5% CO2 incubator. Cells within 14 passages were used in all experiments.
For silencing Htt and VCP in HD striatal cells, control siRNA, mouse Htt and mouse VCP siRNA were purchased from Thermo Fisher Scientific. HdhQ7 and HdhQ111 cells were transfected either with control siRNA, or Htt or VCP siRNA using TransIT-TKO Transfection Reagent (Mirus Bio, LLC), according to the manufacturer's instructions. The sequences for the siRNAs used in this study are as follows: mouse Htt, 5′-[…]-3′; Mouse VCP, 5′-GAGAGCAACCUUCGUAAG-3′; control non-targeting siRNA, 5′-TTCTCCGAACGTGTCACGT-3′.
(§1) Cells were washed with cold PBS and incubated on ice for 30 min in a lysis buffer (250 mM sucrose, 20 mM HEPES-NaOH, pH 7.5, 10 mM KCl, 1.5 mM MgCl2, 1 mM EDTA, protease inhibitor cocktail and phosphatase inhibitor cocktail). Mouse brains were minced and homogenized in the lysis buffer and then placed on ice for 30 min. Collected cells or tissue were disrupted 20 times by repeated aspiration through a 25-gauge needle, followed by a 30-gauge needle. The homogenates were spun at 800 g for 10 min at 4 °C, and the resulting supernatants were spun at 10,000 g for 20 min at 4 °C. The pellets were washed with lysis buffer and spun at 10,000 g again for 20 min at 4 °C. The final pellets were suspended in lysis buffer containing 1% Triton X-100 and were mitochondrial-rich lysate fractions. The supernatant was centrifuged at 100,000 g, 4 °C, for 1 h, the pellets were suspended in lysis buffer containing 1% Triton X-100 as ER fractions. The final supernatant was cytosolic fractions. The mitochondrial proteins VDAC, the ER protein WFS1 and the cytosolic protein Enolase were used as loading controls for mitochondrial, ER and cytosolic fractions, respectively.
(§2) Protein concentrations were determined by Bradford assay. […]
A general note: In western blotting, separated proteins are transferred to a membrane and probed.

The next experiment relates to R6/2 mice. Nature of the experiment: VCP mitochondrial level, R6/2 mouse striatum. The class given is in vivo. As to conditions: R6/2, 3 mg kg^−1 per day from 5 to 9 weeks versus TAT, n=6. Here is the method: as §1
Male R6/2 mice and their wt littermates (4 weeks old) were purchased from Jackson Laboratories (Bar Harbor, ME; B6CBA-TgN (HD exon 1)62; JAX stock number: 006494). […]
as §2

The subject of experiment [3] is HdhQ111 striatal cells and striata of HD R6/2 and YAC128 mice. In words: VCP total protein level, HD cells and HD mouse striata (western blot). Conditions: HV-3 treatment, HD cell cultures and HD animal brains. The protocol: Protein concentrations were determined by Bradford assay. Protein was resuspended in Laemmli buffer, loaded on SDS–PAGE, and transferred onto nitrocellulose membranes. Membranes were probed with the indicated antibodies, followed by visualization with ECL. Representative blots have been cropped for presentation. Images of full-size blots are presented in Supplementary Fig. 9. […]
green). Lower: the enlarged area is labeled in green. (f) The sequence in VCP corresponding to HV-3 in Htt was deleted (Δ VCP). GST, GST-VCP, or GST-ΔVCP was incubated with total lysates of mouse brain for 16 hours followed by Western blot with anti -Htt antibodies. The representative blots are from three independent experiments.
Supplementary Figure 5: Treatment of peptide inhibitor HV-3 in HD animal models. (a) HD R6/2 mice and wildtype littermates were treated with either a control peptide or peptide HV-3 (3 mg/kg/day, subcutaneous administration with an Alzet osmotic pump) from 5 to 13 weeks of age. The pump was replaced every four weeks. […] Mouse behaviors and HD -associated pathology were determined […] after beginning treatment. […]
(b) To t a l protein lysates were extracted from HdhQ111 striatal cells and the striata of HD R6/2 and YAC128 mice. VCP protein levels were determined by Western blot analysis. […]

The subject of experiment [4] is HdhQ111 mouse striatal cells. In words: Mitochondrial length and mitophagosomes by electron microscopy. The class given is cell-based. Conditions: 3 uM/day for 3 days, EM. The source says: The HdhQ7 and HdhQ111 cells were fixed by 2.5% glutaraldehyde in 0.1 M cacodylate buffer. Small pieces of the striata tissue of mice were fixed by immersion in triple aldehyde-DMSO. After rinsing in 0.1 M phosphate buffer (pH 7.3), the samples were post-fixed in ferrocyanide-reduced osmium tetroxide.
The above fixed samples were rinsed by water followed by overnight soaking in acidified uranyl acetate. After rinsing in distilled water, the blocks were dehydrated in ascending concentrations of ethanol, passed through propylene oxide, and embedded in Poly/Bed resin. Thin sections were sequentially stained with acidified uranyl acetate followed by a modification of Sato's triple lead stain. These sections were examined in a FEI Tecnai Spirit (T12) transmission electron microscope with a Gatan US4000 4kx4k CCD at the Case Western Reserve University EM core facility. Mitochondria from 15 random areas in each group were imaged by an experimenter blind to the experimental groups. The length of mitochondria was measured by NIH Image J software. The number of mitophagosomes per 100 μm^2 was counted. The number of gold particles labelling VCP on mitochondria were quantitated.

Take `CSCC[C@H](NC(=O)[C@@H](NC(=O)[C@H](CC(C)C)NC(=O)[C@@H](NC(=O)[C@H](Cc1c[nH]cn1)NC(=O)CCCCCNC(=O)[C@H](CCCNC(=N)N)NC(=O)[C@H](CCCNC(=N)N)NC(=O)[C@H](CCCNC(=N)N)NC(=O)[C@H](CCC(N)=O)NC(=O)[C@H](CCCNC(=N)N)NC(=O)[C@H](CCCNC(=N)N)NC(=O)[C@H](CCCCN)NC(=O)[C@H](CCCCN)NC(=O)[C@H](CCCNC(=N)N)NC(=O)CNC(=O)[C@@H](N)Cc1ccc(O)cc1)C(C)C)C(C)C)C(=O)N[C@@H](CS)C(=O)N[C@@H](C)C(=O)N[C@H](C(N)=O)[C@@H](C)O` [HV-3]: in experiment [1], the “interaction between VCP and UBXD1” value was “nor did it influence the interaction between VCP and its known binding protein UBXD1”. In addition, the “VCP translocation to mitochondria” value in experiment [2] (HdhQ111 cells, HV-3 3 μM per day for 3 days versus TAT, n=3) is on record as “abolished VCP translocation to the mitochondria”. Moreover, the “VCP mitochondrial levels, wt” value in experiment [2] (wt counterparts of the HD models) is listed as “only minor effects”. Further, in the experiment on R6/2 mice, the “VCP translocation to mitochondria in striatum” value was “suppressed the VCP translocation to mitochondria”. Besides, the “VCP total protein levels” value in experiment [3] is given as “no effects on VCP total protein levels”. For the same compound, in experiment [4], the mitochondrial length entry is listed as “increased mitochondrial length” and the number of mitophagosomes entry is reported as “reduced this accumulation; also recorded: greatly reduced the accumulation of mitophagosomes”.
